In assay [1] the test system is B. tabaci. Nature of the assay: Statistical correlation (stepwise-linear regression, MANOVA) of headspace volatiles with whitefly repellence ranking. Also noted: species or system Bemisia tabaci. The conditions noted are these: for compounds responsible for repellency or attraction of whitefly: linked to S. pennelli, S. habrochaites or cultivated S. lycopersicum headspace; for Effect on insects: volatiles of tomato headspace correlated to whitefly repellency/attraction score by linear regression; for association: semiochemicals associated to B. tabaci repellence or attraction. An excerpt:
In a large experiment (see Example 2), the headspace of 16 wild tomato accessions and 5 cultivated tomato lines were sampled and analyzed (6 repeats). In total 51 compounds were identified to be present in the captured headspace. Furthermore, the level of repellency/attraction of each of the 21 tomato accessions was established in free choice bioassays with B. tabaci (biotype Q), using a ranking scale of 1-7 (1=highest repellency to 7=lowest repellency). Next, the identified volatile compounds were correlated to the repellency/attraction score of each tomato accession through a linear regression analysis.
The headspace of 16 wild tomatoes and 5 cultivated tomatoes (Table 4) was collected. Undisturbed 3-weeks old tomato plants were transferred to 40-L desiccators. The headspace was sampled during 24 h including a 16 h light period, by trapping of the volatile components as described above. […] Each accession was sampled 6 times.
In a statistical analysis the correlation between the identified components of the tomato headspace and the ranking of whitefly repellence measured in the bioassays was made. Using two approaches, a stepwise-linear regression analysis and a MANOVA, 8 volatiles were identified to be correlated to whitefly repellence, whereas 24 other volatile compounds were eliminated as non-relevant for repellency or attraction.

Assay [2] relates to adult whiteflies B. tabaci. As to conditions: cited from earlier work.
Assay [3] has as its system fourth instar larvae of Colorado potato beetle. The conditions noted are these: cited from earlier work.
Assay [4] concerns B. tabaci. Briefly: Free-choice bioassay: headspace or pure volatiles added to one of four cv Moneymaker tomato plants. As to conditions: pure compound added to Moneymaker background. The format is in vivo, Bemisia tabaci (biotype Q, Almeria population). Here is the method:
A population of Bemisia tabaci was collected at a common greenhouse in Santa Maria del Aguila (Almeria, Spain) in October 2005. By PCR analyses this population was identified to belong to the Q-biotype. The population was reared in a climate chamber (Temperature 28° C., 16 h light) on a mixture of tomato and cucumber plants. Preference of the insects for particular plants (treated or untreated/control-treated) was tested in free choice bioassays.
Free choice experiments with B. tabaci were carried out in a greenhouse compartment (28° C., RH 65%). Light was supplied by high-pressure sodium lamps (Hortilex Schréder SON-T PIA GP 600 W) with a radiation of 250 W/m^2. The preference behaviour of B. tabaci biotype Q (Almeria population) and biotype B (labculture Netherlands) was compared in bioassays with different wild tomatoes (LA1777, LA2560, GI1560) and S. lycopersicum cv Moneymaker). Plants were placed inside a plastic covered wooden tray (170×100×20 cm) filled with soil, at equal distance from each other. Two hundred adult whiteflies were captured, placed at 4° C. for five minutes and then released in the middle of the setup. Ten and 20 minutes after release, the number of whiteflies on each plant was recorded. Since no differential behaviour between B. tabaci B and Q was found, all further bioassays were done with the Almeria (Q) population.
For bioassays with headspace (total headspace or single compounds) four potted tomato plants (S. esculentum cv Moneymaker) were placed in a square setup at a distance of 50 cm. One hundred and fifty adult whiteflies were released and recorded as described above. To test the effect of selected headspace components on repellence, synthetic standards (FLUKA) were applied to either 10 filter-papers discs (Whatman, 25 mm diameter) or 10 rubber septa (Sigma Aldrich, Z167258). Prior to loading, the septa were placed in CH2Cl2 for 24 h and air-dried for 3 days (Heath et al., 1986). The paper discs or septa containing volatiles were attached to one of the four plants with metal wire. The position of the treated tomato was randomised. Five minutes after placing the volatiles on the plant, whiteflies were released. For each component at least 8 replications were carried out. Treatments were administered in a setup in which compounds were always added to the same plant in comparison to 3 plants with empty carriers. Prior to each assay with volatiles, the experiment was done with the 4 plants in an untreated setup, in the same position to allow comparison in the same background.
Host preference with and without manipulated headspace by B. tabaci was explored in free choice assays. In each setup four cultivated tomatoes (cv. Moneymaker) were tested as described earlier. For the bioassays with volatiles rubber septa (Sigma Aldrich Z167258) were extracted with CH2Cl2 for 24 hours and dried to the air for 3 days. The desired blend of volatiles was added to the rubber septa in 100 μl hexane. Bioassays with pure components, or mixtures of pure components were carried out as described above.

Another assay has as its system B. tabaci antennae. Briefly: Electroantennography (EAG). Also noted: species or system Bemisia tabaci. The conditions noted are these: 10^-3 dilution in paraffin oil; response to paraffin oil subtracted. Here is the method: Electroantennography (EAG) was employed to confirm the responsiveness of the atennae to 10^−3 dilution in paraffin oil (Uvasol, Merck) of the chemicals described. Small pieces of filter paper (2 cm2; Schleicher & Schuell, Dassel, Germany) were soaked with 100 μl of the standard dilution or praffin oil only (control). The filter paper was inserted into a 10-ml glass syringe (Poulten & Graf GmbH, Wertheim, Germany). A reproducible stimulus was supplied by puffing 5 ml of air over the antenna (Schutz et al., 1999). The EAG response was recorded for each standard (10^−3) dilution. The response to paraffin oil was considered as a negative control and was subtracted from all the reported EAG measurements. The EAG response expressed as a potential difference across the electrodes (in mV) for the different pure chemicals is given in the right-hand column of Table 5.

The subject of assay [5] is pests of cut flowers (e.g. B. tabaci). As to conditions: fumigants at 10-20 mg/l, after 2-4 hours of exposure; cited from earlier work.

On to `CC1=CC2C(CC1)C2(C)C` (stereo not drawn) [2-carene], for which, in the assay on B. tabaci [1], the “compounds responsible for repellency or attraction of whitefly” value (“compounds responsible” below) is listed as “significantly correlated to the more attractive cultivated S. lycopersicum plants” and the Effect on insects result was “Attractant”.
With `CCCCCCCCCCCC(C)=O` [2-tridecanone], the toxic effect result in assay [2] is listed as “toxic effect”.
For `CCCCCCCCCC(C)=O` [2-undecanone], in assay [3], the toxic effect entry is on record as “toxic effect”.
As for `CC(C)=CCC[C@@H](C)[C@@H]1C=CC(C)=CC1` [7-epi zingiberene], the “effect on repellence/attractiveness of treated tomato plant (in words)” value (shortened to “effect on repellence/attractiveness”) in the assay on B. tabaci [4] was “clear repellent effect”. For the same compound, in the assay with B. tabaci [1], the “compounds responsible” value is “more unattractive” and the association entry is “repellence”. In addition, the “antennal response (EAG potential difference)” value in the assay with B. tabaci antennae is on record as 2.3 mV.
Take `CC1=CCC(C(C)C)C=C1` (stereo not drawn) [Alpha-phellandrene]: the “effect on repellence/attractiveness” value in the assay on B. tabaci [4] is “decreased tomato attractiveness significantly”. For the same compound, in the assay with B. tabaci [1], the “compounds responsible” value is on record as “repellent”, the association result is “repellence” and the Effect on insects result is recorded as “Repellent”. Further, the “antennal response (EAG potential difference)” value in the assay on B. tabaci antennae worked out at 2.2 mV.
`CC1=CC=C(C(C)C)CC1` [Alpha-terpinene]: the “effect on repellence/attractiveness” value in the assay with B. tabaci [4] is reported as “decreased tomato attractiveness significantly”. Also, in the assay on B. tabaci [1], the “compounds responsible” value is “repellent”, the association result is given as “repellence” and the Effect on insects result was “Repellent”. The “antennal response (EAG potential difference)” value in the assay with B. tabaci antennae stood at 4.1 mV.
Take `CC12CCC(CC1)C(C)(C)O2` [Cineole]: the mortality result in assay [5] is recorded as “caused mortality”.
Turning to `CC(C)=CCC[C@H](C)c1ccc(C)cc1` [S-curcumene], in the assay with B. tabaci [4], the “effect on repellence/attractiveness” value is “clear repellent effect”. For the same compound, in the assay on B. tabaci [1], the “compounds responsible” value is reported as “more unattractive” and the association entry is recorded as “repellence”. The “antennal response (EAG potential difference)” value in the assay with B. tabaci antennae came out at 5.0 mV.
In the case of `CC(C)=CCCC(C)c1ccc(C)cc1` (stereo not drawn) [alpha-curcumene], in the assay with B. tabaci [1], the Effect on insects entry is “Repellent”.
With `C=CC(=C)CCC=C(C)C` [beta-myrcene], in the assay with B. tabaci [1], the “compounds responsible” value is on record as “repellent” and the Effect on insects result is “Repellent”.
Taken in the same sequence, the figures for `C=C1C=CC(C(C)C)CC1` (stereo not drawn) [beta-phellandrene] were “significantly correlated to the more attractive cultivated S. lycopersicum plants” and “Attractant”.
In the case of `CC1=CCC(C(C)C)=CC1` [gamma-terpinene], in the assay with B. tabaci [4], the “effect on repellence/attractiveness” value was “no significant behavioural effect”. In the assay on B. tabaci [1], the “compounds responsible” value is “repellent” and the Effect on insects result was “Repellent”.
As for `C=C(C)[C@H]1CC=C(C)CC1` [limonene], in the assay with B. tabaci [1], the “compounds responsible” value is “significantly correlated to the more attractive cultivated S. lycopersicum plants” and the Effect on insects entry is listed as “Attractant”.
For `Cc1ccc(C(C)C)cc1` [para-cymene], in the assay on B. tabaci [1], the “compounds responsible” value is recorded as “repellent”, the association result is listed as “repellence” and the Effect on insects entry is “Repellent”. For the same compound, the “antennal response (EAG potential difference)” value with B. tabaci antennae came to 2.4 mV.
Turning to `C=CCc1ccc2c(c1)OCO2` [safrole], in assay [5], the mortality result is listed as “caused mortality”.
In the case of `CC(C)=CCCC(C)[C@@H]1C=CC(C)=CC1` (stereo partly drawn) [zingiberene], the Effect on insects entry in the assay on B. tabaci [1] was “Repellent”.
